Assay results published in PMC4042408 (ACS chemical biology, 2013).

Key:
[1] = test system: serine hydrolases; test: Competitive ABPP-MudPIT of brain and peripheral tissues; type: in vivo, mouse
[2] = target: T1, ABHD6 (Mus musculus, UniProt Q8R2Y0); test: Gel-based competitive ABPP; type: biochemical
T1 sequence (Q8R2Y0 1-336): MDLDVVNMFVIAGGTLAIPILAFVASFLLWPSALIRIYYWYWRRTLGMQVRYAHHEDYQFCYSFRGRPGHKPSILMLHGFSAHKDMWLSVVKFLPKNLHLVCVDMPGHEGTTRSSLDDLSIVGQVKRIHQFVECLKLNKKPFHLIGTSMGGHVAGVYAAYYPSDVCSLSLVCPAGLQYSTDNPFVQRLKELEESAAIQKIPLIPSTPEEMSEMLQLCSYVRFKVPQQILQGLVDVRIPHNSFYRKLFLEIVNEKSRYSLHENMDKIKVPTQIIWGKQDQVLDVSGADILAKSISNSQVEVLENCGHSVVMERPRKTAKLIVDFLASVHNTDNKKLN

[3] = target: T2, CES3 (Mus musculus, UniProt Q8VCT4); test: Gel-based competitive ABPP; type: biochemical
T2 sequence (Q8VCT4 19-565): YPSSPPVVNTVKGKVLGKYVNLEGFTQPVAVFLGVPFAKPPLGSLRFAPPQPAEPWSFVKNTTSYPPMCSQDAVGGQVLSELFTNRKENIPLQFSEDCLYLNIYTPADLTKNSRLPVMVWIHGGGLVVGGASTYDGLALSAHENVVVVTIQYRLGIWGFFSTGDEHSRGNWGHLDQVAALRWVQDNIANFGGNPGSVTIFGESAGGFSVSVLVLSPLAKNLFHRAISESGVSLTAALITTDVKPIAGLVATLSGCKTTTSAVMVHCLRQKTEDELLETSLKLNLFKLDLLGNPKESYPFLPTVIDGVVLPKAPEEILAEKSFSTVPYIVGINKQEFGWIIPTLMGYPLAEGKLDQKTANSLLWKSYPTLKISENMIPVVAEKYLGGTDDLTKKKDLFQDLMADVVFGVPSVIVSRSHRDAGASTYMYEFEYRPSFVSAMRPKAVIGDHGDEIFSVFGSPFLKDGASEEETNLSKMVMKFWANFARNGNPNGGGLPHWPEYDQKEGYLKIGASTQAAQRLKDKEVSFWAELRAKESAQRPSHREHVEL

[4] = target: T3, APEH (Mus musculus, UniProt Q8R146); test: Gel-based competitive ABPP; type: biochemical; conditions: mouse brain proteome
T3 sequence (Q8R146 1-732): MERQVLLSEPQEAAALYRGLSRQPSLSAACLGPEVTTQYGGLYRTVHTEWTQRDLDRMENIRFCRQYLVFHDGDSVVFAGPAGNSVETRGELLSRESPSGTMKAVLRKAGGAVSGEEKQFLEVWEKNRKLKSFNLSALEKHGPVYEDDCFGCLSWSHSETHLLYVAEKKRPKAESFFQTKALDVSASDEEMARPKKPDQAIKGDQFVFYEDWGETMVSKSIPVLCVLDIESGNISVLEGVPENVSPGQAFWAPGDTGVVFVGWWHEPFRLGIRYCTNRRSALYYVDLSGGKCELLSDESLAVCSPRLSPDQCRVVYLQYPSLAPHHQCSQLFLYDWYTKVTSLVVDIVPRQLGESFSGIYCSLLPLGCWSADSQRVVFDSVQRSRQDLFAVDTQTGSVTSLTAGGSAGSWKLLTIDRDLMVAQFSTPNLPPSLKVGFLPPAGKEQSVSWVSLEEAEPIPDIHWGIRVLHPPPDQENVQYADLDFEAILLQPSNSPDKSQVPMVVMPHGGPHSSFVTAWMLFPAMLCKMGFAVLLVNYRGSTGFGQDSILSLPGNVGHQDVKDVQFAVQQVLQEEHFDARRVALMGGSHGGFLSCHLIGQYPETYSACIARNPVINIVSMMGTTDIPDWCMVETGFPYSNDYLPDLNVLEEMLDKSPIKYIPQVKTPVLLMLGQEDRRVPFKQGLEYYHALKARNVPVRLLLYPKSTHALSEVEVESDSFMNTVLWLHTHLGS

[5] = target: T4, ABHD3 (Mus musculus, UniProt Q91ZH7); test: Gel-based competitive ABPP; type: biochemical
T4 sequence (Q91ZH7 1-411): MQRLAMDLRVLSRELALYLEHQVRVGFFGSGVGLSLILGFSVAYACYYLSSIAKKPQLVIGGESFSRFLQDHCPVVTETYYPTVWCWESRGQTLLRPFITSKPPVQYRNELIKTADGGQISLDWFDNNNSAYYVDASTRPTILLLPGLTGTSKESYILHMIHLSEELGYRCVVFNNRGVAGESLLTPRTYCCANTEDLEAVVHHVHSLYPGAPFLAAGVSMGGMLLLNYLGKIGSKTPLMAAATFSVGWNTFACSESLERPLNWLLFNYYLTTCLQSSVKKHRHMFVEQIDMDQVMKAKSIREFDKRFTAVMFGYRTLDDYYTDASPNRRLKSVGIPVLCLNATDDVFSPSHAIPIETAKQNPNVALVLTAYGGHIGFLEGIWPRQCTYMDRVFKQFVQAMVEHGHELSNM

[6] = target: T5, HSL (Mus musculus, UniProt P54310); test: Gel-based competitive ABPP; type: biochemical
T5 sequence (P54310 1-759): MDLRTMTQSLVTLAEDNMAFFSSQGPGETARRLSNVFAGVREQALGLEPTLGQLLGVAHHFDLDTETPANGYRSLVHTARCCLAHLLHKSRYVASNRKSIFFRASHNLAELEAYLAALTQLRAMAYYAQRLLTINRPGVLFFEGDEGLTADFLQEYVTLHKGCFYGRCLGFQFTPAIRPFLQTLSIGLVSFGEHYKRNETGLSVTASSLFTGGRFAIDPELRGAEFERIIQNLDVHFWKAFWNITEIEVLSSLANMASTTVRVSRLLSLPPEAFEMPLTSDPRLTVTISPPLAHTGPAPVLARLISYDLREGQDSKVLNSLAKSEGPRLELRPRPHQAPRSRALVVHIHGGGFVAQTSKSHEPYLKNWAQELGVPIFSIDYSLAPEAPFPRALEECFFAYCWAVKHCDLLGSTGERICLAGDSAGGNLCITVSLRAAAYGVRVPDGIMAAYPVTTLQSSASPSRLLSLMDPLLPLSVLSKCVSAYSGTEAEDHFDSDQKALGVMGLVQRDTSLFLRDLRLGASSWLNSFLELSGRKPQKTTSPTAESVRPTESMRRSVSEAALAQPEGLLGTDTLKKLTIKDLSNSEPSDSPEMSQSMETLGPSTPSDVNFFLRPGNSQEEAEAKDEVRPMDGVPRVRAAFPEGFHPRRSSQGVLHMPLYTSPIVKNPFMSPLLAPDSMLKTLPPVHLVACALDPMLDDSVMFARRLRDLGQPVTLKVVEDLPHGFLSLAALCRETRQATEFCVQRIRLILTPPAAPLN

[7] = target: CES2; test: Gel-based competitive ABPP; type: biochemical
[8] = target: T6, KIAA1363 (Mus musculus, UniProt Q8BLF1); test: Gel-based competitive ABPP; type: biochemical
T6 sequence (Q8BLF1 1-408): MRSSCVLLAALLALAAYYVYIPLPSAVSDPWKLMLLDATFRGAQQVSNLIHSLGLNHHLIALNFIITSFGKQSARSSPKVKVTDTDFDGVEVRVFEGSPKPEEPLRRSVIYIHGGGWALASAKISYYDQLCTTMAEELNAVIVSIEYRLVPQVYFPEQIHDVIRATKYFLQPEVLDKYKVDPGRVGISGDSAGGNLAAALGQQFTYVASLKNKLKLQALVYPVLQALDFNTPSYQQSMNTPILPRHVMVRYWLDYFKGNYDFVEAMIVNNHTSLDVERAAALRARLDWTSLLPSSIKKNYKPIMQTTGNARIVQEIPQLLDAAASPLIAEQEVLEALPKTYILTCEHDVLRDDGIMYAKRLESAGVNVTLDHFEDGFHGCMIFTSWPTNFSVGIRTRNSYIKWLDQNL

[9] = target: T7, CES1 (Mus musculus, UniProt Q8VCC2); test: Gel-based competitive ABPP; type: biochemical
T7 sequence (Q8VCC2 19-565): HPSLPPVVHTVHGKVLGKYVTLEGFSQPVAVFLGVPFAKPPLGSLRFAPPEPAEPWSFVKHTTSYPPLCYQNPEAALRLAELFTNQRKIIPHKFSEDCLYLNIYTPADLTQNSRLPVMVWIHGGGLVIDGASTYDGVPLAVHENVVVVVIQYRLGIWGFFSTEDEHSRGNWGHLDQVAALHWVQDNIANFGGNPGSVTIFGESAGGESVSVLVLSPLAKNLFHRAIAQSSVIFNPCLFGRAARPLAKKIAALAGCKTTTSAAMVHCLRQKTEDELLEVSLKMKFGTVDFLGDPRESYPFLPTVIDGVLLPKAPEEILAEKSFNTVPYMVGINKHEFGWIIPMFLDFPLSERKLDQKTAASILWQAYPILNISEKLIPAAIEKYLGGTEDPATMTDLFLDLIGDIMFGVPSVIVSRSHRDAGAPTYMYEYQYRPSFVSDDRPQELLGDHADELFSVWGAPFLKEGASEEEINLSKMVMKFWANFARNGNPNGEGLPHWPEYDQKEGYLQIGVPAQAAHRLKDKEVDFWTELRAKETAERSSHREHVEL

[10] = test system: C20:4 LPA hydrolytic activity of mouse brain proteomes; type: biochemical; conditions: inhibitor 1 μM, 30 min, 37°C

## CCOP(=S)(OCC)Oc1nc(Cl)c(Cl)cc1Cl [CPF, chlorpyrifos]
[1]; CPF-treated mice, peripheral tissues
  additional serine hydrolases not found in the brain (AADAC, CES1, CES1F, CES2, CES2B, CES2G, CES3, CES5, CES6, ES22, BChE) in peripheral tissues: blocked
[1]; mice, brain and peripheral tissues, CPF 50 mg/kg ip, 4 h
  total number of metabolic serine hydrolases inhibited in vivo: twenty-one

## CCOP(=O)(OCC)Oc1nc(Cl)c(Cl)cc1Cl [CPO, chlorpyrifos-oxon]
[2]
  IC50 compared to that of ACHE: equivalent or lower
[3]
  IC50 compared to that of ACHE: comparable
[4]
  IC50 compared to that of ACHE: equivalent or lower
[5]
  IC50 compared to that of ACHE: comparable
[6]
  IC50 compared to that of ACHE: equivalent or lower
[7]
  IC50 compared to that of ACHE: equivalent or lower
[8]
  IC50 compared to that of ACHE: comparable
[9]
  IC50 compared to that of ACHE: equivalent or lower

## O=C(Oc1ccc([N+](=O)[O-])cc1)N1CCC(C(O)(c2ccc3c(c2)OCO3)c2ccc3c(c2)OCO3)CC1 [JZL184]
[10]
  C20:4 LPA hydrolytic activity (C20:4 FFA release): inhibits

## O=C(Oc1ccc([N+](=O)[O-])cc1)N1CCN(Cc2cccc(Oc3ccccc3)c2)CC1 [JZL195]
[10]
  C20:4 LPA hydrolytic activity (C20:4 FFA release): inhibits
